Data reported in publication PMC10878344 (Journal of Enzyme Inhibition and Medicinal Chemistry, 2024).
Entries after “also recorded” stand apart in the source; their conditions may differ.

Legend:
eqBuChE [1] = biological target: T1, eqBuChE (Equus caballus, UniProt P81908); assay: eqBuChE inhibition, modified Ellman's method; assay type: biochemical, equine
huBuChE = huBuChE (Homo sapiens, UniProt P06276); assay: huBuChE inhibition, modified Ellman's method; assay type: biochemical
[2] = PAMPA-BBB in vitro blood-brain barrier permeation assay
eeAChE = eeAChE (Electrophorus electricus, UniProt O42275); assay: eeAChE inhibition, modified Ellman's method; assay type: biochemical, electric eel
Sequence of eeAChE (O42275 24-633): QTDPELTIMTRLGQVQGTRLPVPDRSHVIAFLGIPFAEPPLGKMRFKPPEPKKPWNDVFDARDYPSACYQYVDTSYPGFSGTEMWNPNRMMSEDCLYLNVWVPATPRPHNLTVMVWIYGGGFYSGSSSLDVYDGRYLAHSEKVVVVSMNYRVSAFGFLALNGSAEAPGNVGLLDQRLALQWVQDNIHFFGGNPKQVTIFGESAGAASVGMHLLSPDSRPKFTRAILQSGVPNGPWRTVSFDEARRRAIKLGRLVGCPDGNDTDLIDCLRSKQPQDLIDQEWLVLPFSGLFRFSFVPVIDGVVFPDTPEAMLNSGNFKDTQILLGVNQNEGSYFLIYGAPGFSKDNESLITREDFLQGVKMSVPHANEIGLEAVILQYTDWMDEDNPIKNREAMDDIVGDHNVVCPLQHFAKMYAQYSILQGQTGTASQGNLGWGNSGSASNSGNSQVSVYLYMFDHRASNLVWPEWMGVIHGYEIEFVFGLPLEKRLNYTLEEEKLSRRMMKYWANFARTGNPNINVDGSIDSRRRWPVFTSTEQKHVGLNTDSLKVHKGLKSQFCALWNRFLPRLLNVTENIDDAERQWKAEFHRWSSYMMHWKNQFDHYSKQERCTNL

[3] = test system: scopolamine-induced cognitive impairment mouse model; assay: Morris water maze test in scopolamine-induced cognitive impairment mouse model; assay type: in vivo, C57BL/6J mice; settings: scopolamine 5 mg/kg i.p.; for escape latency to the platform: fifth day of training trials; for number of crossing the platform: last day without platform
eqBuChE [4] = biological target: T1, eqBuChE; assay: Kinetics of BuChE inhibition; assay type: biochemical, equine
Acute toxicity test = settings: both, ICR, mouse, in vivo, po, 1000 mg/kg
ICR mice = assay: Acute toxicity test; settings: ICR mice
[5] = test system: LPS-induced NO production of mouse microglia cells (BV-2); assay: LPS-induced NO production in BV-2 microglia; assay type: cell-based; settings: for NO production: 10 μM compound, LPS-induced BV-2 cells
BV-2 cells = assay: BV-2 cell viability; settings: 10 μM, MTT, 24 h

T1 sequence (P81908 whole entry): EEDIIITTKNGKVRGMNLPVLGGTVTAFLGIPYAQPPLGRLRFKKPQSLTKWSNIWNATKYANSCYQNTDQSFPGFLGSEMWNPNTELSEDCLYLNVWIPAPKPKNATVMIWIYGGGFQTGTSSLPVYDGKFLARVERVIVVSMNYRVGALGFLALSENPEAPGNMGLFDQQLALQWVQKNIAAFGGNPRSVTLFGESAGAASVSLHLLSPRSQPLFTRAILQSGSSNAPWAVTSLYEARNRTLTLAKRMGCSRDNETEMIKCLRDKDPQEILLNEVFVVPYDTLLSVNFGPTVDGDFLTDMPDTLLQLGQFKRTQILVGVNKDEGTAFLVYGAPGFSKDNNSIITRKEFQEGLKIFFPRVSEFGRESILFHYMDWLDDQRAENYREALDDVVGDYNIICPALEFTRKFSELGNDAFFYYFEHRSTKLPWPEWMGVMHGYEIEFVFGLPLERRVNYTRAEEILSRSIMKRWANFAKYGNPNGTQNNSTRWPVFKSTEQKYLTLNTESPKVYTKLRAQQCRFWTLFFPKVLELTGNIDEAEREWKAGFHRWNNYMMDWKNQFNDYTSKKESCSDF
Sequence of huBuChE (P06276 29-602): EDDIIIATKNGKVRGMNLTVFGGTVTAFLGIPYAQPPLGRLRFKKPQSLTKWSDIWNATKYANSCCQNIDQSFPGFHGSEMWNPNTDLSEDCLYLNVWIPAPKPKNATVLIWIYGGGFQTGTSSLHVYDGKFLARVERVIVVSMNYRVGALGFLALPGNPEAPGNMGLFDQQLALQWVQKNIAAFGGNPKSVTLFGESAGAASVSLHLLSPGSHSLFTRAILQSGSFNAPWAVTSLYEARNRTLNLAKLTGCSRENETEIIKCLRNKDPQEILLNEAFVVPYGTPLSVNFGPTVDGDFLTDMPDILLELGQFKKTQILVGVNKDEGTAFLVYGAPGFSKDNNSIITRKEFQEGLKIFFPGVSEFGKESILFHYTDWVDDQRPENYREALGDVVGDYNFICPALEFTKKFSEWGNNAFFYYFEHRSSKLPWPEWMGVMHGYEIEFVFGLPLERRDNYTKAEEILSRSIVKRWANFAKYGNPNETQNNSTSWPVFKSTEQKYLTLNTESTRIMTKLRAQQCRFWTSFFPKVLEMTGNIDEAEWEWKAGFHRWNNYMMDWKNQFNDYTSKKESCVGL

COc1c(/C=C/c2cccc(OC(=O)N3CCCCC3)c2)oc(C)cc1=O [Compound 7p, (E)-3-(2-(3-methoxy-6-methyl-4-oxo-4H-pyran-2-yl)vinyl)phenyl piperidine-1-carboxylate]
IC50 (eqBuChE [1]): 4.68 ± 1.39 nM
fold increase in inhibiting eqBuChE (eqBuChE [1]; relative to compound 7g): 3 fold
IC50 (huBuChE): 9.12 ± 0.57 nM
fold increase in inhibiting huBuChE (huBuChE; relative to compound 7g): 4 fold
BBB permeability in the PAMPA-BBB assay (in words) ([2]; PAMPA): high BBB permeability
Papp at 10 h, 25 μg/mL ([2]; PAMPA, pH 7.4): 5.7 ± 0.43 ×10⁻⁶ cm/s
CNS (±) ([2]; PAMPA-BBB classification from Pe): CNS + (CNS +: (high BBB permeability), Pe (×10^−6 cm/s) > 3.95)
IC50 (eeAChE): > 20000 nM
escape latency to the platform ([3]; 1 mg/kg oral once daily): 30.24 s
number of crossing the platform ([3]; 1 mg/kg oral once daily): 3.3 times
escape latency to the platform ([3]; 5 mg/kg oral once daily): 29.12 s
number of crossing the platform ([3]; 5 mg/kg oral once daily): 3.5 times
Ki (eqBuChE [4]): 3.15 nM
Kib (inhibition constant for the enzyme-substrate complex) (eqBuChE [4]; Cornish-Bowden plot): 3.84 nM
type of BuChE inhibition (eqBuChE [4]; Dixon and Cornish-Bowden plots): mix-type; also recorded: mixed-type inhibition
LD50 at 14 d (Acute toxicity test): > 1000 mg/kg
abnormal behaviours or deaths after administration (ICR mice; 1000 mg/kg intragastric single dose, 14 d): no abnormal behaviours or deaths
pathological changes in heart, liver, spleen and brain (HE staining) (ICR mice; 1000 mg/kg, after 14 d, compared with control group): did not observe obvious pathological changes
NO production [5]: 71.18%
inhibition at 10 µM ([5]; Mus musculus, BV-2, read-out: NO inhibition): 28.8%

C[C@]12CCC(=O)C=C1CC[C@@H]1[C@@H]2[C@@H](O)C[C@@]2(C)[C@H]1CC[C@]2(O)C(=O)CO [hydrocortisone, Hydrocortisone, reference compound]
cell viability compared to the control group (BV-2 cells): no significant differences
NO production [5]: 70.25%
